Test system: 996289-038-R-J1-PDC spheroid viability
Assay: Anticancer human tumor 996289-038-R-J1-PDC patient-derived colon adenocarcinoma cell line growth inhibition [PI3K]
Conditions: spheroids with HUVEC and MSC; for IC50: curve of first compound; for viability, T/C: stronger effect = lower value; active = viability on the fitted dose curve at most 10% of control; inactive = the rest
In short: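 Viability of mixed-cell spheroids was determined after exposure to pairwise combinations, one partner being inavolisib, alpelisib, duvelisib or copanlisib. Highest tested concentration matched clinical Cmax where known and 10 microM where not, descending in half-log steps.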
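Note: spheroids exposed to compounds for seven days before viability read.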
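Throughout, for viability, T/C: luminescence used as a proxy for viable cell amount; percent viability relative to DMSO vehicle control as 100%.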

CNC(=O)c1ccc(N2C(=S)N(c3ccc(C#N)c(C(F)(F)F)c3)C(=O)C2(C)C)cc1F + CC(Nc1ncnc2nc[nH]c12)c1cc2cccc(Cl)c2c(=O)n1-c1ccccc1
> 10000 nM: IC50 (second compound 0.0316 µM) | IC50 (second compound 0.1 µM) | IC50 (second compound 0.316 µM) | IC50 (second compound 1 µM) | IC50 (second compound 3.16 µM) | IC50 (second compound 10 µM)
inactive: viability, T/C (second compound 0.0316 µM, first compound 0.0316 µM) 96.5% | viability, T/C (second compound 0.0316 µM, first compound 0.1 µM) 104% | viability, T/C (second compound 0.0316 µM, first compound 0.316 µM) 110% | viability, T/C (second compound 0.0316 µM, first compound 1 µM) 110% | viability, T/C (second compound 0.0316 µM, first compound 3.16 µM) 118% | viability, T/C (second compound 0.0316 µM, first compound 10 µM) 119% | viability, T/C (second compound 0.1 µM, first compound 0.0316 µM) 130% | viability, T/C (second compound 0.1 µM, first compound 0.1 µM) 98.4% | viability, T/C (second compound 0.1 µM, first compound 0.316 µM) 93.6% | viability, T/C (second compound 0.1 µM, first compound 1 µM) 88.6% | viability, T/C (second compound 0.1 µM, first compound 3.16 µM) 105% | viability, T/C (second compound 0.1 µM, first compound 10 µM) 108% | viability, T/C (second compound 0.316 µM, first compound 0.0316 µM) 107% | viability, T/C (second compound 0.316 µM, first compound 0.1 µM) 106% | viability, T/C (second compound 0.316 µM, first compound 0.316 µM) 102% | viability, T/C (second compound 0.316 µM, first compound 1 µM) 110% | viability, T/C (second compound 0.316 µM, first compound 3.16 µM) 119% | viability, T/C (second compound 0.316 µM, first compound 10 µM) 103% | viability, T/C (second compound 1 µM, first compound 0.0316 µM) 94.7% | viability, T/C (second compound 1 µM, first compound 0.1 µM) 112% | viability, T/C (second compound 1 µM, first compound 0.316 µM) 98.2% | viability, T/C (second compound 1 µM, first compound 1 µM) 102% | viability, T/C (second compound 1 µM, first compound 3.16 µM) 114% | viability, T/C (second compound 1 µM, first compound 10 µM) 96.9% | viability, T/C (second compound 3.16 µM, first compound 0.0316 µM) 96.9% | viability, T/C (second compound 3.16 µM, first compound 0.1 µM) 102% | viability, T/C (second compound 3.16 µM, first compound 0.316 µM) 89.6% | viability, T/C (second compound 3.16 µM, first compound 1 µM) 109% | viability, T/C (second compound 3.16 µM, first compound 3.16 µM) 102% | viability, T/C (second compound 3.16 µM, first compound 10 µM) 110% | viability, T/C (second compound 10 µM, first compound 0.0316 µM) 98.9% | viability, T/C (second compound 10 µM, first compound 0.1 µM) 101% | viability, T/C (second compound 10 µM, first compound 0.316 µM) 83.1% | viability, T/C (second compound 10 µM, first compound 1 µM) 104% | viability, T/C (second compound 10 µM, first compound 3.16 µM) 98.8% | viability, T/C (second compound 10 µM, first compound 10 µM) 97.2%

Cn1cnc2c(F)c(Nc3ccc(Br)cc3Cl)c(C(=O)NOCCO)cc21 + CC(Nc1ncnc2nc[nH]c12)c1cc2cccc(Cl)c2c(=O)n1-c1ccccc1
218 nM: IC50 (second compound 1 µM)
161 nM: IC50 (second compound 3.16 µM)
inactive: viability, T/C (second compound 0.0316 µM, first compound 0.00949 µM) 102% | viability, T/C (second compound 0.0316 µM, first compound 0.03 µM) 77.2% | viability, T/C (second compound 0.0316 µM, first compound 0.0949 µM) 67.1% | viability, T/C (second compound 0.0316 µM, first compound 0.3 µM) 39.3% | viability, T/C (second compound 0.0316 µM, first compound 0.949 µM) 33.5% | viability, T/C (second compound 0.0316 µM, first compound 3 µM) 21.2% | viability, T/C (second compound 0.1 µM, first compound 0.00949 µM) 94.4% | viability, T/C (second compound 0.1 µM, first compound 0.03 µM) 77% | viability, T/C (second compound 0.1 µM, first compound 0.0949 µM) 54.9% | viability, T/C (second compound 0.1 µM, first compound 0.3 µM) 42.8% | viability, T/C (second compound 0.1 µM, first compound 0.949 µM) 33.5% | viability, T/C (second compound 0.1 µM, first compound 3 µM) 23.9% | viability, T/C (second compound 0.316 µM, first compound 0.00949 µM) 108% | viability, T/C (second compound 0.316 µM, first compound 0.03 µM) 79.7% | viability, T/C (second compound 0.316 µM, first compound 0.0949 µM) 62.8% | viability, T/C (second compound 0.316 µM, first compound 0.3 µM) 45.1% | viability, T/C (second compound 0.316 µM, first compound 0.949 µM) 36.4% | viability, T/C (second compound 0.316 µM, first compound 3 µM) 21.2% | viability, T/C (second compound 1 µM, first compound 0.00949 µM) 85.5% | viability, T/C (second compound 1 µM, first compound 0.03 µM) 69% | viability, T/C (second compound 1 µM, first compound 0.0949 µM) 63.6% | viability, T/C (second compound 1 µM, first compound 0.3 µM) 43.9% | viability, T/C (second compound 1 µM, first compound 0.949 µM) 33.6% | viability, T/C (second compound 1 µM, first compound 3 µM) 19.2% | viability, T/C (second compound 3.16 µM, first compound 0.00949 µM) 83.5% | viability, T/C (second compound 3.16 µM, first compound 0.03 µM) 73.7% | viability, T/C (second compound 3.16 µM, first compound 0.0949 µM) 58.9% | viability, T/C (second compound 3.16 µM, first compound 0.3 µM) 37.7% | viability, T/C (second compound 3.16 µM, first compound 0.949 µM) 31.1% | viability, T/C (second compound 3.16 µM, first compound 3 µM) 18.2% | viability, T/C (second compound 10 µM, first compound 0.00949 µM) 94.1% | viability, T/C (second compound 10 µM, first compound 0.03 µM) 68.3% | viability, T/C (second compound 10 µM, first compound 0.0949 µM) 53.9% | viability, T/C (second compound 10 µM, first compound 0.3 µM) 36.2% | viability, T/C (second compound 10 µM, first compound 0.949 µM) 27% | viability, T/C (second compound 10 µM, first compound 3 µM) 13.9%
166 nM: IC50 (second compound 0.1 µM)
114 nM: IC50 (second compound 10 µM)
207 nM: IC50 (second compound 0.0316 µM)
225 nM: IC50 (second compound 0.316 µM)

— PubChem BioAssay AID1963965 (Molecular Pharmacology Branch, DTP, NCI, 2024)
